Assay results: ChEMBL document CHEMBL5291721, “A preclinical secondary pharmacology resource illuminates target-adverse drug reaction associations of marketed drugs” (Nat Commun, 2023)

Assays:
[1] = target: T1, Peroxisome proliferator-activated receptor gamma (Homo sapiens, UniProt P37231); format: functional
T1 sequence (P37231 whole entry): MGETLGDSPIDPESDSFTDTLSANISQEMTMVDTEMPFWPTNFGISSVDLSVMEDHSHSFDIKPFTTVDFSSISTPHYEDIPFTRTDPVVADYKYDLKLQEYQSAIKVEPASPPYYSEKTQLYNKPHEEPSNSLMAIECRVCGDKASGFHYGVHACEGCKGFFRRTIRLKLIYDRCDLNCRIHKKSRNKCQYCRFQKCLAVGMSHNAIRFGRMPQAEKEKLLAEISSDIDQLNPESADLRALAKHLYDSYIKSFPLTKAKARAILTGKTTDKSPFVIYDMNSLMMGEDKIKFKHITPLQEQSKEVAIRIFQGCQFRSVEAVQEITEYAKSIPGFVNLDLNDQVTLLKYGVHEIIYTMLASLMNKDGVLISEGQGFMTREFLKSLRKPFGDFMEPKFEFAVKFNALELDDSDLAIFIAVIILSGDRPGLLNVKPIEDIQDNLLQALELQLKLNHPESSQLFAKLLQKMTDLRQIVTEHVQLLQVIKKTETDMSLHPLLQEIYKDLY

[2] = target: 5-hydroxytryptamine receptor 2B (Homo sapiens, UniProt P41595)
[3] = target: T2, Thromboxane A2 receptor (Homo sapiens, UniProt P21731); format: functional, cell-based
T2 sequence (P21731 whole entry): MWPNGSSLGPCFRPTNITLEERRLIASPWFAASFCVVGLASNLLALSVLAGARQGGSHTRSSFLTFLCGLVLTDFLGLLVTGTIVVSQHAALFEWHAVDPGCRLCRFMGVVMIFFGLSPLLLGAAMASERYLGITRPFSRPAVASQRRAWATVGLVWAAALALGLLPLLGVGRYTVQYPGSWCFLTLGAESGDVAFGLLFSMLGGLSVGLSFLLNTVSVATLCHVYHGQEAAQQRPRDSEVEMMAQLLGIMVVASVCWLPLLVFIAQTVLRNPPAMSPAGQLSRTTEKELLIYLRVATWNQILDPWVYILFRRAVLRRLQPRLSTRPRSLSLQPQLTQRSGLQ

[4] = target: T3, 5-hydroxytryptamine receptor 1A (Homo sapiens, UniProt P08908)
T3 sequence (P08908 whole entry): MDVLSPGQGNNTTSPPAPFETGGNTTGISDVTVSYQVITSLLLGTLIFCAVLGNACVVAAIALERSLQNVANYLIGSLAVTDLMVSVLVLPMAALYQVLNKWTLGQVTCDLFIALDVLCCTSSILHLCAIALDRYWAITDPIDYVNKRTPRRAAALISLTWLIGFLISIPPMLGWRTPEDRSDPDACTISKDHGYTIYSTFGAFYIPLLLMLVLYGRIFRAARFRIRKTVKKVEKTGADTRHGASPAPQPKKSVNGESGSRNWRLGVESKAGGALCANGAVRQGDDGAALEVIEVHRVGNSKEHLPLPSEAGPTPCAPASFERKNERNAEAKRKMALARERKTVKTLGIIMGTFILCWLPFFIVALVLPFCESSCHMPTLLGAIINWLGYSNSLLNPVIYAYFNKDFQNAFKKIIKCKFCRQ

[5] = target: T4, Alpha-2A adrenergic receptor (Homo sapiens, UniProt P08913)
T4 sequence (P08913 whole entry): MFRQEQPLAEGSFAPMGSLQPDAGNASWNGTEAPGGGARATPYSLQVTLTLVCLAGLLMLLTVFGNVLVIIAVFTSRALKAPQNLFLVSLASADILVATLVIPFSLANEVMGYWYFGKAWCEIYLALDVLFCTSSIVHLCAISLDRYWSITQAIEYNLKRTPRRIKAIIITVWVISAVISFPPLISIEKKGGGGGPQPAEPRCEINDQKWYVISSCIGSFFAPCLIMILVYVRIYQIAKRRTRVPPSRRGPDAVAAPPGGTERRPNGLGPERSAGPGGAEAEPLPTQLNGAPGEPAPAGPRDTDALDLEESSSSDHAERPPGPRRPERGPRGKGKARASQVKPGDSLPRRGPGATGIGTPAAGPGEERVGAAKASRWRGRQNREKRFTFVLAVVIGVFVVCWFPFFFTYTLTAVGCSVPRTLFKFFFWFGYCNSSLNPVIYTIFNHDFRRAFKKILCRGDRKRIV

[6] = target: Mu-type opioid receptor (Homo sapiens, UniProt P35372)
[7] = target: T4, Alpha-2A adrenergic receptor; remark: listed apart in the source
[8] = target: T5, Corticotropin-releasing factor receptor 1 (Homo sapiens, UniProt P34998)
T5 sequence (P34998 whole entry): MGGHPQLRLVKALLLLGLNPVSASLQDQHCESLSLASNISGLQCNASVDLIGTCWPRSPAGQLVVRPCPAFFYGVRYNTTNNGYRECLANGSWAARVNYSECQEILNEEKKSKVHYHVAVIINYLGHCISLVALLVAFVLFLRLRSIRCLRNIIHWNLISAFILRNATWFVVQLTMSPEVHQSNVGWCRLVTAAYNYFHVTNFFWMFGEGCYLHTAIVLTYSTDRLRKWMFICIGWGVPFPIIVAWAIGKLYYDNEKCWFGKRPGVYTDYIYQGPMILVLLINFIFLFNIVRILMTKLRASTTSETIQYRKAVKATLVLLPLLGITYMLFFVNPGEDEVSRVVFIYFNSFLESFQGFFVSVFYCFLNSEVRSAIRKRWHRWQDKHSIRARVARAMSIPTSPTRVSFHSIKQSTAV

[9] = target: T6, Neuropeptide Y receptor type 2 (Homo sapiens, UniProt P49146)
T6 sequence (P49146 whole entry): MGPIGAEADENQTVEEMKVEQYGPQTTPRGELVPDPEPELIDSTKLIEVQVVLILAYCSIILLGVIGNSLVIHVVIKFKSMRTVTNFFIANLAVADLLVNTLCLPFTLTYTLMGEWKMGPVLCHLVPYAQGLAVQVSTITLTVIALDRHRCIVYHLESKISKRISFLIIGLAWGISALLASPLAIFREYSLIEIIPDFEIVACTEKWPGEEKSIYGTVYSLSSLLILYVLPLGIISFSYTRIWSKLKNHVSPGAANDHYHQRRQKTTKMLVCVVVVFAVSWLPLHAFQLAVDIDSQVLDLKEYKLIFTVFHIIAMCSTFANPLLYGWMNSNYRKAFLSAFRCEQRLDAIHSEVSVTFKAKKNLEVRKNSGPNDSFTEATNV

[10] = target: Estrogen receptor beta (Homo sapiens, UniProt Q92731)
[11] = target: Neurotensin receptor type 1 (Homo sapiens, UniProt P30989)
Also: assay procedure not described here.

Sequence of Estrogen receptor beta (Q92731 whole entry): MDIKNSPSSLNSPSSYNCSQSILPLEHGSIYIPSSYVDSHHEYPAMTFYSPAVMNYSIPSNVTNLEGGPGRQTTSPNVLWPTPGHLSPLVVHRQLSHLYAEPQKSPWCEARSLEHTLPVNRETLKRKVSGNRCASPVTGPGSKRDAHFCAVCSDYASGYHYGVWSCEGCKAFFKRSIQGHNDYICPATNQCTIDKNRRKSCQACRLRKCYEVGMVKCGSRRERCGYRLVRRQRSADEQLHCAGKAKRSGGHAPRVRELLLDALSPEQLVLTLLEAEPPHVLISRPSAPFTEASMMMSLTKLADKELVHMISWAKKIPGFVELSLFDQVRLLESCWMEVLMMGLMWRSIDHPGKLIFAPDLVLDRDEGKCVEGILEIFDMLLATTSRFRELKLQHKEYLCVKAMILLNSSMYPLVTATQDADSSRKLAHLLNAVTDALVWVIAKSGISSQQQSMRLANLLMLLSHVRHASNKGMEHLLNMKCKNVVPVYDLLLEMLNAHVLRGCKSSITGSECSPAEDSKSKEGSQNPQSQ
Sequence of Neurotensin receptor type 1 (P30989 whole entry): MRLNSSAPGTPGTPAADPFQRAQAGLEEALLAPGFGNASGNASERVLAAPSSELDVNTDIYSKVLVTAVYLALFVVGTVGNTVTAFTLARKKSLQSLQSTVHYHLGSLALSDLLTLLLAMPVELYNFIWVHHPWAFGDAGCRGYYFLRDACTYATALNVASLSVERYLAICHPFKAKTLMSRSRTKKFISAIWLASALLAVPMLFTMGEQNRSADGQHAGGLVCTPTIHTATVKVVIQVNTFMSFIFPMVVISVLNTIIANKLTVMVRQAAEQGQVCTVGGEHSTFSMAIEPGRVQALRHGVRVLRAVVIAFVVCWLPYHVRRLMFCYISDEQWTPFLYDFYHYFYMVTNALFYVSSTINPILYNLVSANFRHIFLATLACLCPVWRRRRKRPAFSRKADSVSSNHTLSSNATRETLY
Sequence of Mu-type opioid receptor (P35372 whole entry): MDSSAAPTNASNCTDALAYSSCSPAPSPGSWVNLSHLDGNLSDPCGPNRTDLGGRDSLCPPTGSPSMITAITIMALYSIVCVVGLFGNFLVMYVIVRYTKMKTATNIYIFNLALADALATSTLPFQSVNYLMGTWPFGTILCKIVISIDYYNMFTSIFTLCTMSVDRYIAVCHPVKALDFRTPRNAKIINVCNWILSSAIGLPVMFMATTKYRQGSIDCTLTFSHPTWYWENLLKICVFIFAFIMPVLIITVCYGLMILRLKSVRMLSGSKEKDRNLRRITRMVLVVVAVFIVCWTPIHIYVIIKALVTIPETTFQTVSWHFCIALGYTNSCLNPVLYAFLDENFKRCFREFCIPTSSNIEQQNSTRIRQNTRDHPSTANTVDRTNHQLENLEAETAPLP
Sequence of 5-hydroxytryptamine receptor 2B (P41595 whole entry): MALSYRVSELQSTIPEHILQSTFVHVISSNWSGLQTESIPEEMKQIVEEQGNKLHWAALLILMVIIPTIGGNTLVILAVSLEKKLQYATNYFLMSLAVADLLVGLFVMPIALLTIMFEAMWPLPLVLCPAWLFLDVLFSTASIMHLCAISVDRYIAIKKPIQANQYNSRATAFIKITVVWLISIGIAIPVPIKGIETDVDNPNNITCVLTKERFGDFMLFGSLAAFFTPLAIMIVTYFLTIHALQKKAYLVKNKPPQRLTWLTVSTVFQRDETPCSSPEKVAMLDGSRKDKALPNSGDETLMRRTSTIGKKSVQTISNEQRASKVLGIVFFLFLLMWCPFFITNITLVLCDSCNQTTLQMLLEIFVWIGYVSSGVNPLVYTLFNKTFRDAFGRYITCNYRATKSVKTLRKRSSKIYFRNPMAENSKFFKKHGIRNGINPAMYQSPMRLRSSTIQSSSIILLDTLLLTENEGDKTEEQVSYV

SMILES: Oc1ccc2c(c1)[C@@]13CCCC[C@@]1(O)[C@@H](C2)N(CC1CCC1)CC3 [BUTORPHANOL]
- AC50 [1]: > 30 µM

SMILES: Cn1cnc2c(F)c(Nc3ccc(Br)cc3Cl)c(C(=O)NOCCO)cc21 [SELUMETINIB]
- AC50 [2]: > 10 µM

SMILES: O=C(O)CCCCC1CCSS1 (stereo not drawn) [LIPOIC ACID, ALPHA]
- AC50 [3]: > 30 µM
- AC50 [4]: > 30 µM
- AC50 [5]: > 30 µM
- AC50 [6]: > 30 µM

SMILES: Cc1ncc2n1-c1ccc(Cl)cc1C(c1ccccc1F)=NC2 [MIDAZOLAM]
- AC50 [7]: > 10 µM

SMILES: Cn1c(=O)cc(N2CCC[C@@H](N)C2)n(Cc2ccccc2C#N)c1=O [ALOGLIPTIN]
- AC50 [8]: > 30 µM
- AC50 [2]: > 10 µM
- AC50 [9]: > 30 µM
- AC50 [7]: > 10 µM
- AC50 [10]: > 30 µM
- AC50 [11]: > 30 µM

SMILES: CC(=O)OCC(=O)[C@@]1(O)[C@H](C)C[C@H]2[C@@H]3CCC4=CC(=O)C=C[C@]4(C)[C@@]3(F)[C@@H](O)C[C@@]21C [DEXAMETHASONE ACETATE]
- AC50 [8]: > 30 µM
- AC50 [9]: > 30 µM
- AC50 [10]: > 30 µM
- AC50 [11]: > 30 µM

SMILES: CCN1CCCC1CNC(=O)c1cc(S(=O)(=O)CC)c(N)cc1OC (configuration not stated) [AMISULPRIDE]
- AC50 [1]: > 30 µM

SMILES: Nc1c2ccccc2nc2ccccc12 [AMINACRINE]
- AC50 [3]: > 30 µM
- AC50 [4]: > 30 µM
- AC50 [5]: 16.9 µM
- AC50 [6]: 13.8 µM
